Reference: paper PMC11207571, “Applicability of MDR1 Overexpressing Abcb1KO-MDCKII Cell Lines for Investigating In Vitro Species Differences and Brain Penetration Prediction” (Pharmaceutics, 2024)

Target: T1, mouse Mdr1a (Mus musculus, UniProt P21447)
Test: Bidirectional transport assay, efflux ratio in Abcb1KO-MDCKII mMDR1 cells
Conditions: mouse, pH 7.4
How it was run: (§1)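 Compound concentrations determined by HPLC-MS/MS (SRM), 0.1% formic acid water/acetonitrile eluents; cassette pools of 3–4 analytes.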

T1 sequence (P21447 whole entry): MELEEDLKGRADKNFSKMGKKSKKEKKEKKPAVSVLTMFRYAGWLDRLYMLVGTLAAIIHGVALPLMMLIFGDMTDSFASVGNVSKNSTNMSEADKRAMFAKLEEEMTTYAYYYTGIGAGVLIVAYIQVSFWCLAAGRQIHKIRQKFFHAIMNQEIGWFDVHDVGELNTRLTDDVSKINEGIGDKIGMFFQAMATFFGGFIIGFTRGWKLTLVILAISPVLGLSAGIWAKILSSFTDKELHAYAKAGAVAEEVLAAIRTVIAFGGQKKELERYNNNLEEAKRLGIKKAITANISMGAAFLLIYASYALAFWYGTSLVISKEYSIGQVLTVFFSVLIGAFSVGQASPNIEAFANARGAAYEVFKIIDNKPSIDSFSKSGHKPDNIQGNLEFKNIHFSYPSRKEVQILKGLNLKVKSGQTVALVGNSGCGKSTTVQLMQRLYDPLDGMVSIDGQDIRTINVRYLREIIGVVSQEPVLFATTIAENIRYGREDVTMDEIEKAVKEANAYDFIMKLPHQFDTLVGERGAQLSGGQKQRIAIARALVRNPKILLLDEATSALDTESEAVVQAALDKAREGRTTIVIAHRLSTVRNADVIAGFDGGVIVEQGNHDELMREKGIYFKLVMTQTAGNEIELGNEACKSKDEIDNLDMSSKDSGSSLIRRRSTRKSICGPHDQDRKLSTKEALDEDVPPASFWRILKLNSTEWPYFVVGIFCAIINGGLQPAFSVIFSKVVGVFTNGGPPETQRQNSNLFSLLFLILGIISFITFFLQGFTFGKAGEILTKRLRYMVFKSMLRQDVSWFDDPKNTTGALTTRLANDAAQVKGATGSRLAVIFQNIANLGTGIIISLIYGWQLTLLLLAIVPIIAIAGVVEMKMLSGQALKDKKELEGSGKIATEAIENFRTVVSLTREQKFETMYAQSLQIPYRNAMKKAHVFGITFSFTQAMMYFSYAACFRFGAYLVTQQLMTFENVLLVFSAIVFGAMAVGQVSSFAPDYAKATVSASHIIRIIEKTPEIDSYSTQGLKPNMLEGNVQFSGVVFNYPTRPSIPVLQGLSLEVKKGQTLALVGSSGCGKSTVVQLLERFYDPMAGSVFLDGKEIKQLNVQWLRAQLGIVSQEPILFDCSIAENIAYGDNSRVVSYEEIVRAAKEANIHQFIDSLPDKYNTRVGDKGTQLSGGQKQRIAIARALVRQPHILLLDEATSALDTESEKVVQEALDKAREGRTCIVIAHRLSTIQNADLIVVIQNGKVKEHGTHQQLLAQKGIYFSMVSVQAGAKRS

| SMILES | efflux ratio at 120 min, 1 µM |
| --- | --- |
| N=C(N)N/N=C/c1c(Cl)cccc1Cl [Guanabenz] | 1.08 ± 0.09 |
| Cc1ccc(-c2ncc(Cl)cc2-c2ccc(S(C)(=O)=O)cc2)cn1 [Etoricoxib] | 1.72 ± 0.23 |
| CC(=O)CC(c1ccccc1)c1c(O)c2ccccc2oc1=O (stereo not drawn) [Warfarin] | 0.58 ± 0.02 |
| COc1ccc2c(c1)c(CC(=O)O)c(C)n2C(=O)c1ccc(Cl)cc1 [Indomethacin] | 0.39 ± 0.02 |
| CCN(CC)C(=O)/C(C#N)=C/c1cc(O)c(O)c([N+](=O)[O-])c1 [Entacapone] | 0.34 ± 0.05 |

Target: T2, rat Mdr1a (Rattus norvegicus, UniProt Q6PSM0)
Test: Bidirectional transport assay, efflux ratio in Abcb1KO-MDCKII rMDR1 cells
Conditions: rat, pH 7.4
How it was run: as §1

T2 sequence (Q6PSM0 1-1272): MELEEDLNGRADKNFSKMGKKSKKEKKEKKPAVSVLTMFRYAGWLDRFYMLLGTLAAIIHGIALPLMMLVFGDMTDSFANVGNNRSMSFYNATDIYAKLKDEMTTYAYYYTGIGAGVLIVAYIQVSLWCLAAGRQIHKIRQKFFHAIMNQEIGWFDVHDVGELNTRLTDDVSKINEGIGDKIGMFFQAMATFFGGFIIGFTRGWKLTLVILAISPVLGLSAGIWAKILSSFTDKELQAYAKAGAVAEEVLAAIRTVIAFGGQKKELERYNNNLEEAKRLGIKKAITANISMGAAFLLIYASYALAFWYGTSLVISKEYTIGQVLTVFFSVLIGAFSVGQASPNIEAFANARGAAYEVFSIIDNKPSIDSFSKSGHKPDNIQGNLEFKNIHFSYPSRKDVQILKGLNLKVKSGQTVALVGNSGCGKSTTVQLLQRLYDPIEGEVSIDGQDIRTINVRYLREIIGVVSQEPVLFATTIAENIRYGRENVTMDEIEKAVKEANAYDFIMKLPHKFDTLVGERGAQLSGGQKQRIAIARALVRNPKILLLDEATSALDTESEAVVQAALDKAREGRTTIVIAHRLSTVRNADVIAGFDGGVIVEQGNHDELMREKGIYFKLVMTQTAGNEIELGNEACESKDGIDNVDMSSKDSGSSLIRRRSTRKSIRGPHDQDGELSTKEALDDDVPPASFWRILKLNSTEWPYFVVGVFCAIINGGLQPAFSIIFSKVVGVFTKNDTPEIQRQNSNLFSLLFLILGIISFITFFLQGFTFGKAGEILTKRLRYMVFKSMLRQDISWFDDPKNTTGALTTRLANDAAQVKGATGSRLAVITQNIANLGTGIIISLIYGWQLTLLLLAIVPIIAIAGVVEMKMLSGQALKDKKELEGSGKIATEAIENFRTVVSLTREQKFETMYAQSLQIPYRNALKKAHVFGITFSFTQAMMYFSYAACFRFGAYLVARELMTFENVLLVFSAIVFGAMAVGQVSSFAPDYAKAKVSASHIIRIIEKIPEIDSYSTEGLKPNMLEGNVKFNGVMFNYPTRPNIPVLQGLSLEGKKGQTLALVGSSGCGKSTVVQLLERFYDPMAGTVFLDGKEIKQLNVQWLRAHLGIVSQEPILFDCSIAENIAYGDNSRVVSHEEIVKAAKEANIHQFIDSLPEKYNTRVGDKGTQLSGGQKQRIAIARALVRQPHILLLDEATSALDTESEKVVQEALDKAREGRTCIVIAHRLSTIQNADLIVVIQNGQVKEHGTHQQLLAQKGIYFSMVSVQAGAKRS

| SMILES | efflux ratio at 120 min, 1 µM |
| --- | --- |
| N=C(N)N/N=C/c1c(Cl)cccc1Cl [Guanabenz] | 0.85 ± 0.13 |
| Cc1ccc(-c2ncc(Cl)cc2-c2ccc(S(C)(=O)=O)cc2)cn1 [Etoricoxib] | 2.01 ± 0.21 |
| CC(=O)CC(c1ccccc1)c1c(O)c2ccccc2oc1=O (stereo not drawn) [Warfarin] | 0.6 ± 0.01 |
| COc1ccc2c(c1)c(CC(=O)O)c(C)n2C(=O)c1ccc(Cl)cc1 [Indomethacin] | 0.4 ± 0.01 |
| CCN(CC)C(=O)/C(C#N)=C/c1cc(O)c(O)c([N+](=O)[O-])c1 [Entacapone] | 0.39 ± 0.03 |

Target: T3, cynomolgus monkey Mdr1 (Macaca fascicularis, UniProt Q8HZQ6)
Test: Bidirectional transport assay, efflux ratio in Abcb1KO-MDCKII cyMDR1 cells
Conditions: cynomolgus monkey, pH 7.4
How it was run: as §1

T3 sequence (Q8HZQ6 1-1283): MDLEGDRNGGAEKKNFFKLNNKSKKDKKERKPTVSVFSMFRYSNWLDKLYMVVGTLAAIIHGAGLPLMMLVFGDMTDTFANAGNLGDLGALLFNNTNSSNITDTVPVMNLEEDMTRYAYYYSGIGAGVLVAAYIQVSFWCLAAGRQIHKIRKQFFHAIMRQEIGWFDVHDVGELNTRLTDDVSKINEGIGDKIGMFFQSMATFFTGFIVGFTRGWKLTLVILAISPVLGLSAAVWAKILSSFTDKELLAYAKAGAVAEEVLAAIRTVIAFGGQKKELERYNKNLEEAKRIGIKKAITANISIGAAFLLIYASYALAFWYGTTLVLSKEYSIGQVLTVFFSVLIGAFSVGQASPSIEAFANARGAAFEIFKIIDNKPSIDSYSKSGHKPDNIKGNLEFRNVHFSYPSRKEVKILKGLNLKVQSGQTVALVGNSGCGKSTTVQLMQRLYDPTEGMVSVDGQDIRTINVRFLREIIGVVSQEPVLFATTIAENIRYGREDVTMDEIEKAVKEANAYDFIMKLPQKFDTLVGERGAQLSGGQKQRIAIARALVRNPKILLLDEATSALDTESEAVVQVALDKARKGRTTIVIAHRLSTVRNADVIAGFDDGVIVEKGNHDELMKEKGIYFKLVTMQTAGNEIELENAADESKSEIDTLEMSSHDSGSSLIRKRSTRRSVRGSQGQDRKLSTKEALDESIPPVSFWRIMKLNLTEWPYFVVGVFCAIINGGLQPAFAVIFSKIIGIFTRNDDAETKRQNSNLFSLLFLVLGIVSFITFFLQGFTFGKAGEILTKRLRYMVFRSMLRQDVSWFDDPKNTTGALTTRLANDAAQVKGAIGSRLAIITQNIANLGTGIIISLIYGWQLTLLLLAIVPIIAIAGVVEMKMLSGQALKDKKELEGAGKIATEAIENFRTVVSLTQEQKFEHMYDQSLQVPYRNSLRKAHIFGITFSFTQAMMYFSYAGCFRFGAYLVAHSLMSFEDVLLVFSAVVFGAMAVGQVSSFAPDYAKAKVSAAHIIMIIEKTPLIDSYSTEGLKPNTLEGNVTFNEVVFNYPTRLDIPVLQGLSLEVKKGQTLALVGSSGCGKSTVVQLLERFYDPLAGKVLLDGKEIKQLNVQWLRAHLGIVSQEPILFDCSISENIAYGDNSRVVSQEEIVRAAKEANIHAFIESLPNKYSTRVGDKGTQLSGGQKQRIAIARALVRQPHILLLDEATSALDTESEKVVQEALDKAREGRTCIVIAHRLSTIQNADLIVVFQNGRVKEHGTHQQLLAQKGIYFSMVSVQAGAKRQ

| SMILES | efflux ratio at 120 min, 1 µM |
| --- | --- |
| N=C(N)N/N=C/c1c(Cl)cccc1Cl [Guanabenz] | 0.84 ± 0.1 |
| Cc1ccc(-c2ncc(Cl)cc2-c2ccc(S(C)(=O)=O)cc2)cn1 [Etoricoxib] | 1.24 ± 0.21 |
| CC(=O)CC(c1ccccc1)c1c(O)c2ccccc2oc1=O (stereo not drawn) [Warfarin] | 0.58 ± 0.05 |
| COc1ccc2c(c1)c(CC(=O)O)c(C)n2C(=O)c1ccc(Cl)cc1 [Indomethacin] | 0.4 ± 0.03 |
| CCN(CC)C(=O)/C(C#N)=C/c1cc(O)c(O)c([N+](=O)[O-])c1 [Entacapone] | 0.46 ± 0.07 |

System: not listed separately
Test: Bidirectional transport assay, efflux ratio in Abcb1KO-MDCKII-Mock control cells
Conditions: dog, MDCK, pH 7.4
Procedure: Eluent A consisted of 0.1% formic acid in water, eluent B consisted of 0.1% formic acid in acetonitrile. Then, 10 µL samples were injected into the HPLC-MS/MS system. Mass spectrometric detection was performed in SRM mode, and ion transitions for each analyte were optimized during method development. Samples were analyzed in pools, with each pool containing three to four analytes.

| SMILES | efflux ratio at 120 min, 1 µM |
| --- | --- |
| N=C(N)N/N=C/c1c(Cl)cccc1Cl [Guanabenz] | 0.93 ± 0.15 |
| Cc1ccc(-c2ncc(Cl)cc2-c2ccc(S(C)(=O)=O)cc2)cn1 [Etoricoxib] | 0.9 ± 0.09 |
| CC(=O)CC(c1ccccc1)c1c(O)c2ccccc2oc1=O (stereo not drawn) [Warfarin] | 0.54 ± 0.02 |
| COc1ccc2c(c1)c(CC(=O)O)c(C)n2C(=O)c1ccc(Cl)cc1 [Indomethacin] | 0.37 ± 0.07 |
| CCN(CC)C(=O)/C(C#N)=C/c1cc(O)c(O)c([N+](=O)[O-])c1 [Entacapone] | 0.32 ± 0.02 |

Target: T3, cynomolgus monkey Mdr1
Test: cell-based
Conditions: not given

| SMILES | IC50 |
| --- | --- |
| Cc1ccc(-c2ncc(Cl)cc2-c2ccc(S(C)(=O)=O)cc2)cn1 [Etoricoxib] | 15.5 ± 11.7 µM |

Target: T4, human BCRP (Homo sapiens, UniProt Q9UNQ0)
T4 sequence (Q9UNQ0 1-655): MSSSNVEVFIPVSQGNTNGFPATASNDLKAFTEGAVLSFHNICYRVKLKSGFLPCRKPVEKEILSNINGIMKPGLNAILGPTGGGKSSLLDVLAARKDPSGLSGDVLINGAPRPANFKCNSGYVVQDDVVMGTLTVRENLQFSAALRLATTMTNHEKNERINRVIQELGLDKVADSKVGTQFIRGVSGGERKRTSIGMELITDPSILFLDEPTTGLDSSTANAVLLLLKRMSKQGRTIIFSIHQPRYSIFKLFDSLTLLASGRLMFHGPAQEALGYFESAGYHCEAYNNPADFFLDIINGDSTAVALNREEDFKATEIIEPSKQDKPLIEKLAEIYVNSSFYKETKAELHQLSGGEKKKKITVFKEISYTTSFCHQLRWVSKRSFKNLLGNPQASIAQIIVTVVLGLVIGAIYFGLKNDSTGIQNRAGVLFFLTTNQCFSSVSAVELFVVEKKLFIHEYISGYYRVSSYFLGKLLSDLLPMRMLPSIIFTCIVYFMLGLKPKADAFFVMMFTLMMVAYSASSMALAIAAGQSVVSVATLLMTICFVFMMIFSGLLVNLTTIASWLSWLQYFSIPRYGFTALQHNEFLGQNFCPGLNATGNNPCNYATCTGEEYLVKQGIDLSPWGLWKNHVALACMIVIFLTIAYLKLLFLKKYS
Test: Bidirectional transport assay, efflux ratio in MDCKII-BCRP cells
Conditions: human, pH 7.4
How it was run: as §1

| SMILES | efflux ratio at 120 min, 1 µM |
| --- | --- |
| N=C(N)N/N=C/c1c(Cl)cccc1Cl [Guanabenz] | 3.35 ± 1.17 |
| Cc1ccc(-c2ncc(Cl)cc2-c2ccc(S(C)(=O)=O)cc2)cn1 [Etoricoxib] | 2.35 ± 0.25 |
| CC(=O)CC(c1ccccc1)c1c(O)c2ccccc2oc1=O (stereo not drawn) [Warfarin] | 4.03 ± 0.29 |
| COc1ccc2c(c1)c(CC(=O)O)c(C)n2C(=O)c1ccc(Cl)cc1 [Indomethacin] | 10.2 ± 0.71 |
| CCN(CC)C(=O)/C(C#N)=C/c1cc(O)c(O)c([N+](=O)[O-])c1 [Entacapone] | 49.4 ± 3.92 |

Target: T1, mouse Mdr1a
Test: Inhibition of 3H-digoxin or 3H-quinidine bidirectional transport in mMDR1 cells
Format: cell-based
Set-up: mouse Mdr1a (NM_011076.3); expressed in transfected cells; host or cells: Abcb1KO-MDCKII (canine kidney, endogenous Abcb1 knocked out), transduced, single-cell clone
Conditions: Inhibition of digoxin transport IC50±SD, mMDR1, probe 3H-digoxin 1 µM, 120 min; IC50 from ER

| SMILES | IC50 |
| --- | --- |
| Cc1ccc(-c2ncc(Cl)cc2-c2ccc(S(C)(=O)=O)cc2)cn1 [Etoricoxib] | 57.8 ± 29.8 µM |

Same assay, conditions: Inhibition of quinidine transport IC50±SD, mMDR1, probe 3H-quinidine 1 µM, 60 min; IC50 from ER

| SMILES | IC50 |
| --- | --- |
| Cc1ccc(-c2ncc(Cl)cc2-c2ccc(S(C)(=O)=O)cc2)cn1 [Etoricoxib] | 22.2 ± 5.43 µM |

Target: T5, human MDR1 (Homo sapiens, UniProt P08183)
Test: Bidirectional transport assay, efflux ratio in Abcb1KO-MDCKII hMDR1 cells
Conditions: ER cut-off 2; in vivo rodent Kp,uu,brain cut-off 0.3
How it was run: as §1

T5 sequence (P08183 whole entry): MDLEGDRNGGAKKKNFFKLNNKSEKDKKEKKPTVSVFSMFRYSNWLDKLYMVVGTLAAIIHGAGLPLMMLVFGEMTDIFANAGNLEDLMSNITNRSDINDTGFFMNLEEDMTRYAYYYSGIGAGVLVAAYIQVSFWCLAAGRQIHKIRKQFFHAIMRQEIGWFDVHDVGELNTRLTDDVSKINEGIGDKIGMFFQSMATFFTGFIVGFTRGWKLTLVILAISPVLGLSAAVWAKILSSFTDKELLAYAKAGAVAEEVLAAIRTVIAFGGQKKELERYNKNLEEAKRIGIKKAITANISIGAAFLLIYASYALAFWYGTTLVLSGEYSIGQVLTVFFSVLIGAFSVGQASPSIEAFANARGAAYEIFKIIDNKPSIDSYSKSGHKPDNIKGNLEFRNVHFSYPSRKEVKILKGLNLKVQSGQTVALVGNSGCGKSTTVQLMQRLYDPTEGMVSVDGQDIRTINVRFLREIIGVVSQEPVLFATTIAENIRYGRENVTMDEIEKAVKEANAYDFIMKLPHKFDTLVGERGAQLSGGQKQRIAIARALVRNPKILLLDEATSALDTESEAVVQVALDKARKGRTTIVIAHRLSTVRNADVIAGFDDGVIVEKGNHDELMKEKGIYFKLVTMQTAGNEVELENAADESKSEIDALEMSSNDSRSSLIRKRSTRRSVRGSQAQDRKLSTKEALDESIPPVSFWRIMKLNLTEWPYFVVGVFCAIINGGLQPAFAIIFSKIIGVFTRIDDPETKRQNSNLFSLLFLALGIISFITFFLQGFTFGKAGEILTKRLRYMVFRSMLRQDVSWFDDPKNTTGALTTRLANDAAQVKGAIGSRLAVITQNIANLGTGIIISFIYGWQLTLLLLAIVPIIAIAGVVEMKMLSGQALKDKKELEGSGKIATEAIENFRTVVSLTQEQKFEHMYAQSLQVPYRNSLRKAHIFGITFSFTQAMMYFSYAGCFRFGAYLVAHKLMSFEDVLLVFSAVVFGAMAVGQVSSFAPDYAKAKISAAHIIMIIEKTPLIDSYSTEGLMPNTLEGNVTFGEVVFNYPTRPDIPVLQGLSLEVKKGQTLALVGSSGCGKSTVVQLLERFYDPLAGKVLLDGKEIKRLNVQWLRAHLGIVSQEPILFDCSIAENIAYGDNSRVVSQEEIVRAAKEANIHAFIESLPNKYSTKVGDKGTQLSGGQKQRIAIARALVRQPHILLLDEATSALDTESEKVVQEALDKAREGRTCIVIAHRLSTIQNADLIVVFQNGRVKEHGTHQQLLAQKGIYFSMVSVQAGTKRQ

| SMILES | CNS penetration classification based on hMDR1 ER alone |
| --- | --- |
| COc1ccc2c(c1)c(CC(=O)O)c(C)n2C(=O)c1ccc(Cl)cc1 [Indomethacin] | false negatives |
| CCN(CC)C(=O)/C(C#N)=C/c1cc(O)c(O)c([N+](=O)[O-])c1 [Entacapone] | false negatives |

Same assay, conditions: human, MDCK-MDR1, pH 7.4

| SMILES | efflux ratio at 120 min, 1 µM |
| --- | --- |
| N=C(N)N/N=C/c1c(Cl)cccc1Cl [Guanabenz] | 0.82 ± 0.1 |
| Cc1ccc(-c2ncc(Cl)cc2-c2ccc(S(C)(=O)=O)cc2)cn1 [Etoricoxib] | 1.97 ± 0.21 |
| CC(=O)CC(c1ccccc1)c1c(O)c2ccccc2oc1=O (stereo not drawn) [Warfarin] | 0.56 ± 0.02 |
| COc1ccc2c(c1)c(CC(=O)O)c(C)n2C(=O)c1ccc(Cl)cc1 [Indomethacin] | 0.42 ± 0.05 |
| CCN(CC)C(=O)/C(C#N)=C/c1cc(O)c(O)c([N+](=O)[O-])c1 [Entacapone] | 0.28 ± 0.02 |

Target: T5, human MDR1
Test: Inhibition of 3H-digoxin or 3H-quinidine bidirectional transport in hMDR1 cells
Conditions: Inhibition of digoxin transport IC50±SD, hMDR1, probe 3H-digoxin 1 µM, 120 min; IC50 from ER

| SMILES | IC50 |
| --- | --- |
| Cc1ccc(-c2ncc(Cl)cc2-c2ccc(S(C)(=O)=O)cc2)cn1 [Etoricoxib] | > 100 µM |

Same assay, conditions: Inhibition of quinidine transport IC50±SD, hMDR1, probe 3H-quinidine 1 µM, 60 min; IC50 from ER

| SMILES | IC50 |
| --- | --- |
| Cc1ccc(-c2ncc(Cl)cc2-c2ccc(S(C)(=O)=O)cc2)cn1 [Etoricoxib] | > 100 µM |

Target: T2, rat Mdr1a
Test: Inhibition of 3H-digoxin or 3H-quinidine bidirectional transport in rMDR1 cells
Format: cell-based
Set-up: rat Mdr1a (NM_133401.1); expressed in transfected cells; host or cells: Abcb1KO-MDCKII (canine kidney, endogenous Abcb1 knocked out), transduced, single-cell clone
Conditions: Inhibition of digoxin transport IC50±SD, rMDR1, probe 3H-digoxin 1 µM, 120 min; IC50 from ER

| SMILES | IC50 |
| --- | --- |
| Cc1ccc(-c2ncc(Cl)cc2-c2ccc(S(C)(=O)=O)cc2)cn1 [Etoricoxib] | 54.6 ± 3.16 µM |

Same assay, conditions: Inhibition of quinidine transport IC50±SD, rMDR1, probe 3H-quinidine 1 µM, 30 min; IC50 from ER

| SMILES | IC50 |
| --- | --- |
| Cc1ccc(-c2ncc(Cl)cc2-c2ccc(S(C)(=O)=O)cc2)cn1 [Etoricoxib] | 18.8 ± 1.22 µM |

System: hMDR1 and hBCRP
Test: Brain permeability classification from total ER of hMDR1 and hBCRP against in vivo rodent Kp,uu,brain
Conditions: not told
Procedure: MDR1 and/or BCRP substrate properties were investigated by binary classification analysis on CNS+ and CNS− compounds. […] True negative (TN), where there was no efflux and the CNS+ compound crossed the BBB. […] The sensitivity and specificity of the estimation of brain penetration along with MDR1 and BCRP activity were calculated from predictive performance metrics.
First, NET ER was calculated and used for human predictions, (2) NET ER=ER(−inh)[…]ER(+inh) where ER(−inh) is ER in the absence of inhibitor, and ER(+inh) is ER in the presence of inhibitor, for hMDR1 (ERMDR1) or hBCRP (ERBCRP).
To identify the correlation between the in vivo rodent Kp,uu,brain and ERs, 58 compounds with known Kp,uu,brain were selected. An ER of 2 was used as a cut-off to classify MDR1 substrates and a Kp,uu,brain of 0.3 was used as a threshold for CNS penetrant compounds. The resulting graphs are thus divided into four quadrants. Brain penetration (Kp,uu,brain) was used as the logical value true condition, with compounds having Kp,uu,brain ≤ 0.3 considered positive. Q2 and Q3 comprise molecules with impaired brain penetration. […] Molecules in Q4 (true negatives, TN) can freely access the brain (Figure 2). Predictive performance metrics were calculated to show the efficacy of the established cell lines in BBB permeability classification (Table 1). Sensitivity refers to the ability of the model to correctly classify CNS-restricted molecules based on MDR1 substrate nature.
Subsequently, for a more reliable prediction of brain penetration, data generated in the hBCRP cell line were included in the analysis. hBCRP assay conditions and evaluations were identical to that of MDR1 cell lines, which allowed proper comparisons (Figure 2E,F). Total ER was calculated by combining ERs determined in BCRP and hMDR1 cell lines based on Equation (3), with an ER cut-off of 3. […] Eventually, total ERs were also assessed with the Relative Expression Factor (REF) (Equation (4); Figure 2E,F). REF is an in vitro and in vivo correlation scaler, calculated from transporter protein abundances in brain microvessels versus overexpressing cell lines.

| SMILES | CNS penetration classification based on total ER (hMDR1 + hBCRP) |
| --- | --- |
| CC(=O)CC(c1ccccc1)c1c(O)c2ccccc2oc1=O (stereo not drawn) [Warfarin] | false positives |

Same assay, conditions: total ER cut-off 3; in vivo rodent Kp,uu,brain cut-off 0.3

| SMILES | CNS penetration classification based on total ER (hMDR1 + hBCRP) |
| --- | --- |
| N=C(N)N/N=C/c1c(Cl)cccc1Cl [Guanabenz] | false positives |
| Cc1ccc(-c2ncc(Cl)cc2-c2ccc(S(C)(=O)=O)cc2)cn1 [Etoricoxib] | false positives |
| COc1ccc2c(c1)c(CC(=O)O)c(C)n2C(=O)c1ccc(Cl)cc1 [Indomethacin] | true positives |
| CCN(CC)C(=O)/C(C#N)=C/c1cc(O)c(O)c([N+](=O)[O-])c1 [Entacapone] | true positives |

Target: T3, cynomolgus monkey Mdr1
Test: Inhibition of 3H-digoxin or 3H-quinidine bidirectional transport in cyMDR1 cells
Conditions: Inhibition of quinidine transport IC50±SD, cyMDR1, probe 3H-quinidine 0.1 µM, 60 min; IC50 from ER

| SMILES | IC50 |
| --- | --- |
| Cc1ccc(-c2ncc(Cl)cc2-c2ccc(S(C)(=O)=O)cc2)cn1 [Etoricoxib] | 25.9 ± 10.5 µM |
